Read-outs that look alike come from different tables or passages of the source. Starred links: 1 amine or outer side, 2 acyl side, 3 side chain; linkers in the order of their positions; H or OH if unused. Residues, ends and D or L forms follow the SMILES beside them. Groups on a side chain read outwards from the residue. *: point of attachment. C18 diacid = O=C(O)CCCCCCCCCCCCCCCCC(=O)*; γGlu = O=C(O)[C@H](CCC(=O)[*:2])N[*:1]; Stearoyl = CCCCCCCCCCCCCCCCCC(=O)*; Palmitoyl = CCCCCCCCCCCCCCCC(=O)*; AEEA = NCCOCCOCC(=O)O

The target in the assay is T1, human GLP-1 receptor (Homo sapiens, UniProt P43220).
T1 construct: expressed in transfected cells; host or cells: BHK cells, clone BHK-467-12A; plasma membrane preparation
T1 sequence (P43220 24-463): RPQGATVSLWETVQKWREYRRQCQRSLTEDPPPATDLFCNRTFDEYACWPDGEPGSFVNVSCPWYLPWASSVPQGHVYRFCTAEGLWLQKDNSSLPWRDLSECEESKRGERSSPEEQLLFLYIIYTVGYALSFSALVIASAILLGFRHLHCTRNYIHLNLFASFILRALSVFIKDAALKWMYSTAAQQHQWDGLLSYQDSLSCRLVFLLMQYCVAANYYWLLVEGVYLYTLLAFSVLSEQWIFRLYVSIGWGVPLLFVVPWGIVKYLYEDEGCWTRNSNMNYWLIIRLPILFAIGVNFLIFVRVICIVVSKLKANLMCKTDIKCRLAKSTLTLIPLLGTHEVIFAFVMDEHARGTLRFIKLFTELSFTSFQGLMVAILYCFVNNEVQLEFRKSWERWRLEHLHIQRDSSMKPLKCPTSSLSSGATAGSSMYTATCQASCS
Briefly: Functional receptor assay: cAMP formation in plasma membranes of BHK cells expressing the cloned human GLP-1 receptor (GLP1cAMPma). The assay is classed as biochemical. The protocol:
The term “insulinotropic agent” as used herein means a compound which is an agonist of the human GLP-1 receptor, i.e. a compound which stimulates the formation of cAMP in a suitable medium containing the human GLP-1 receptor (one such medium disclosed below). The potency of an insulinotropic agent is determined by calculating the EC50 value from the dose-response curve as described below.
The cells were washed twice in phosphate buffered saline and harvested with Versene. Plasma membranes were prepared from the cells by homogenisation with an Ultraturrax in buffer 1 (20 mM HEPES-Na, 10 mM EDTA, pH 7.4). The homogenate was centrifuged at 48,000×g for 15 min at 4° C. The pellet was suspended by homogenization in buffer 2 (20 mM HEPES-Na, 0.1 mM EDTA, pH 7.4), then centrifuged at 48,000×g for 15 min at 4° C. The washing procedure was repeated one more time. The final pellet was suspended in buffer 2 and used immediately for assays or stored at −80° C.
The functional receptor assay was carried out by measuring cyclic AMP (cAMP) as a response to stimulation by the insulinotropic agent. cAMP formed was quantified by the AlphaScreen™ cAMP Kit (Perkin Elmer Life Sciences). Incubations were carried out in half-area 96-well microtiter plates in a total volume of 50 μL buffer 3 (50 mM Tris-HCl, 5 mM HEPES, 10 mM MgCl2, pH 7.4) and with the following additions: 1 mM ATP, 1 μM GTP, 0.5 mM 3-isobutyl-1-methylxanthine (IBMX), 0.01% Tween-20, 0.1% BSA, 6 μg membrane preparation, 15 μg/mL acceptor beads, 20 μg/mL donor beads preincubated with 6 nM biotinyl-cAMP. […] GTP was freshly prepared for each experiment. The plate was incubated in the dark with slow agitation for three hours at room temperature followed by counting in the Fusion™ instrument (Perkin Elmer Life Sciences). Concentration-response curves were plotted for the individual compounds and EC50 values estimated using a four-parameter logistic model with Prism v. 4.0 (GraphPad, Carlsbad, Calif.).

[1] abbreviates: cAMP, membranes with human GLP-1 receptor, mean value, read-out: GLP1cAMPma (3693) [EC50 (nM)] Mean Value.

Consider `CC[C@H](C)[C@H](NC(=O)[C@H](Cc1ccccc1)NC(=O)[C@H](CC(C)C)NC(=O)[C@H](CCCCNC(=O)COCCOCCNC(=O)COCCOCCNC(=O)CCCCCCCCCCCCCCCCC(=O)O)NC(=O)[C@@H](NC(=O)[C@H](C)NC(=O)[C@H](CCC(=O)O)NC(=O)[C@H](CCC(=O)O)NC(=O)[C@H](CCC(=O)O)NC(=O)[C@H](CC(C)C)NC(=O)[C@H](CCC(N)=O)NC(=O)[C@H](CCCNC(=N)N)NC(=O)[C@H](CO)NC(=O)[C@H](CC(C)C)NC(=O)[C@H](CC(=O)O)NC(=O)[C@H](CO)NC(=O)[C@@H](NC(=O)[C@H](Cc1ccccc1)NC(=O)[C@@H](NC(=O)CNC(=O)[C@H](CCC(=O)O)NC(=O)CNC(=O)[C@@H](N)Cc1c[nH]cn1)[C@@H](C)O)[C@@H](C)O)C(C)C)C(=O)N[C@@H](CCC(=O)O)C(=O)N[C@@H](Cc1c[nH]c2ccccc12)C(=O)N[C@@H](CC(C)C)C(=O)N[C@@H](CCCNC(=N)N)C(=O)N[C@@H](CCC(N)=O)C(=O)NCC(=O)NCC(=O)N1CCC[C@H]1C(=O)N[C@@H](CO)C(=O)N[C@@H](CO)C(=O)NCC(=O)N[C@@H](C)C(=O)N1CCC[C@H]1C(=O)N1CCC[C@H]1C(=O)N1CCC[C@H]1C(=O)N[C@@H](CO)C(N)=O` [Example 12, N-ε^20-(2-(2-(2-(2-(2-(2-(17-carboxyheptadecanoylamino)ethoxy)ethoxy)acetylamino)ethoxy)ethoxy)acetyl)[Arg12,Leu^14,Arg^27,Gln^28,Lys^20]Exendin-4 (1-39)amide] (H-HGEGTFTSDLSRQLEEEAVK([AEEA-AEEA-C18 diacid])LFIEWLRQGGPSSGAPPPS-NH2; N-terminus assumed), for which the EC50 under setting [1] was 5.45 nM.

With `CCCCCCCCCCCCCCCCCC(=O)NCCOCCOCC(=O)NCCOCCOCC(=O)NCCOCCOCC(=O)NCCCC[C@H](NC(=O)[C@@H]1CCCN1C(=O)CNC(=O)CNC(=O)[C@H](CCCNC(=N)N)NC(=O)[C@@H](NC(=O)[C@H](CC(C)C)NC(=O)[C@H](Cc1c[nH]c2ccccc12)NC(=O)[C@H](CCC(=O)O)NC(=O)[C@@H](NC(=O)[C@H](Cc1ccccc1)NC(=O)[C@H](CC(C)C)NC(=O)[C@H](CCCNC(=N)N)NC(=O)[C@@H](NC(=O)[C@H](C)NC(=O)[C@H](CCC(=O)O)NC(=O)[C@H](CCC(=O)O)NC(=O)[C@H](CCC(=O)O)NC(=O)[C@H](CC(C)C)NC(=O)[C@H](CCC(N)=O)NC(=O)[C@H](CCCNC(=N)N)NC(=O)[C@H](CO)NC(=O)[C@H](CC(C)C)NC(=O)[C@H](CC(=O)O)NC(=O)[C@H](CO)NC(=O)[C@@H](NC(=O)[C@H](Cc1ccccc1)NC(=O)[C@@H](NC(=O)CNC(=O)[C@H](CCC(=O)O)NC(=O)CNC(=O)[C@@H](N)Cc1c[nH]cn1)[C@@H](C)O)[C@@H](C)O)C(C)C)[C@@H](C)CC)C(C)C)C(=O)N[C@@H](CO)C(=O)NCC(=O)N[C@@H](C)C(=O)N1CCC[C@H]1C(=O)N1CCC[C@H]1C(=O)N1CCC[C@H]1C(=O)N[C@@H](CO)C(N)=O` [Example 2] (H-HGEGTFTSDLSRQLEEEAVRLFIEWLVRGGPK([AEEA-AEEA-AEEA-Stearoyl])SGAPPPS-NH2), the EC50 worked out at 0.027 nM. Take `CCCCCCCCCCCCCCCC(=O)N[C@@H](CCC(=O)NCCOCCOCC(=O)NCCOCCOCC(=O)NCCCC[C@H](NC(=O)[C@H](CO)NC(=O)[C@H](CO)NC(=O)[C@@H]1CCCN1C(=O)CNC(=O)CNC(=O)[C@H](CC(N)=O)NC(=O)[C@H](CCCNC(=N)N)NC(=O)[C@H](CC(C)C)NC(=O)[C@H](Cc1c[nH]c2ccccc12)NC(=O)[C@H](CCC(=O)O)NC(=O)[C@@H](NC(=O)[C@H](Cc1ccccc1)NC(=O)[C@H](CC(C)C)NC(=O)[C@H](CCCNC(=N)N)NC(=O)[C@@H](NC(=O)[C@H](C)NC(=O)[C@H](CCC(=O)O)NC(=O)[C@H](CCC(=O)O)NC(=O)[C@H](CCC(=O)O)NC(=O)[C@H](CC(C)C)NC(=O)[C@H](CCC(N)=O)NC(=O)[C@H](CCCNC(=N)N)NC(=O)[C@H](CO)NC(=O)[C@H](CC(C)C)NC(=O)[C@H](CC(=O)O)NC(=O)[C@H](CO)NC(=O)[C@@H](NC(=O)[C@H](Cc1ccccc1)NC(=O)[C@@H](NC(=O)CNC(=O)[C@H](CCC(=O)O)NC(=O)CNC(=O)[C@@H](N)Cc1c[nH]cn1)[C@@H](C)O)[C@@H](C)O)C(C)C)[C@@H](C)CC)C(=O)N[C@@H](C)C(=O)N1CCC[C@H]1C(=O)N1CCC[C@H]1C(=O)N1CCC[C@H]1C(=O)N[C@@H](CO)C(N)=O)C(=O)O` [Example 6, N-ε^34-[2-(2-[2-(2-[2-(2-[4-hexadecanoylamino-4(S)-carboxybutyrylamino]ethoxy)ethoxy]acetylamino)ethoxy]ethoxy)acetyl] [Arg^12,27,Leu^14,Lys^34]Exendin-4(1-39)amide] (H-HGEGTFTSDLSRQLEEEAVRLFIEWLRNGGPSSK([AEEA-AEEA-γGlu-Palmitoyl])APPPS-NH2; N-terminus assumed): the EC50 under setting [1] worked out at 0.018 nM. Still for that read-out and setting: under `CCCCCCCCCCCCCCCC(=O)N[C@@H](CCC(=O)NCCOCCOCC(=O)NCCOCCOCC(=O)NCCCC[C@H](NC(=O)[C@@H](NC(=O)[C@H](C)NC(=O)[C@H](CCC(=O)O)NC(=O)[C@H](CCC(=O)O)NC(=O)[C@H](CCC(=O)O)NC(=O)[C@H](CC(C)C)NC(=O)[C@H](CCC(N)=O)NC(=O)[C@H](CCCNC(=N)N)NC(=O)[C@H](CO)NC(=O)[C@H](CC(C)C)NC(=O)[C@H](CC(=O)O)NC(=O)[C@H](CO)NC(=O)[C@@H](NC(=O)[C@H](Cc1ccccc1)NC(=O)[C@@H](NC(=O)CNC(=O)[C@H](CCC(=O)O)NC(=O)CNC(=O)[C@@H](N)Cc1c[nH]cn1)[C@@H](C)O)[C@@H](C)O)C(C)C)C(=O)N[C@@H](CC(C)C)C(=O)N[C@@H](Cc1ccccc1)C(=O)N[C@H](C(=O)N[C@@H](CCC(=O)O)C(=O)N[C@@H](Cc1c[nH]c2ccccc12)C(=O)N[C@@H](CC(C)C)C(=O)N[C@@H](CCCNC(=N)N)C(=O)N[C@@H](CCCNC(=N)N)C(=O)NCC(=O)NCC(=O)N1CCC[C@H]1C(=O)N[C@@H](CO)C(=O)N[C@@H](CO)C(=O)NCC(=O)N[C@@H](C)C(=O)N1CCC[C@H]1C(=O)N1CCC[C@H]1C(=O)N1CCC[C@H]1C(=O)N[C@@H](CO)C(N)=O)[C@@H](C)CC)C(=O)O` [Example 4, N-ε^20-[2-(2-[2-(2-[2-(2-[4-hexadecanoylamino-4(S)-carboxybutyrylamino]ethoxy)ethoxy]acetylamino)ethoxy]ethoxy)acetyl] [Arg^12,27,28,Leu^14,Lys^20]Exendin-4(1-39)amide] (H-HGEGTFTSDLSRQLEEEAVK([AEEA-AEEA-γGlu-Palmitoyl])LFIEWLRRGGPSSGAPPPS-NH2; N-terminus assumed) stands 0.027 nM.

What is called EC50 is the concentration needed to bring the measured effect to its halfway point.

Source of the values: patent publication US9012398B2, “Acylated exendin-4 compounds” (priority 2006, dated 2015).
